Laboratory results published in US10583112B2, “Benzo[b]furans as bromodomain inhibitors” (GlaxoSmithKline Intellectual Property (No. 2) Limited, priority 2016, dated 2020).

Biological target: T1, BRD4 BD2 (Homo sapiens, UniProt O60885, Y97A)
T1 construct: BRD4 (1-477) (Y97A) and (Y390A); made in house; host or cells: E. coli (pET15b vector)
Experiment: BRD4 BD2 TR-FRET competition assay
Type: binding
Details: mean where stated, n given; read-out: pIC50 in the BRD4 BD2 TR-FRET assay (converted)
Procedure: Bromodomain binding was assessed utilising a time resolved fluorescent resonance energy transfer (TR-FRET) competition assay. […] Europium chelate, conjugated to an anti-6*His antibody, was utilised as the donor fluorophore in the TR-FRET pair.
In order to generate a TR-FRET signal, donor fluorophore is excited by a laser at λ337 nm, which subsequently leads to emission at λ618 nm.
In order to monitor differential binding to either BD1 or BD2, single residue mutations of key tyrosines to alanine were made in the acetyl lysine binding pockets. To validate this approach, a double residue mutant tandem domain protein was produced for each of the BET family members.
Final purification was completed by Superdex 200 prep grade size exclusion column. Purified protein was stored at −80° C. in 20 mM HEPES pH 7.5 and 100 mM NaCl.
All assay components were dissolved in an assay buffer composing of 50 mM HEPES pH7.4, 50 mM NaCl, 5% Glycerol, 1 mM DTT and 1 mM CHAPS. […] An equal volume of 3 nM of anti-6*His Europium chelate was added to all wells, followed by a further 30 minute incubation at room temperature. TR-FRET was detected using a Perkin Elmer Multimode plate reader, by exciting the donor fluorophore at λ337 nm and subsequently, after a delay of 50 μsecs, measuring emission of the donor and acceptor fluorophores at λ615 nm and λ665 nm, respectively.
cA four parameter curve fit of the following form was then applied: y=a+((b−a)/(1+(10^x/10^c)^d) • Where ‘a’ is the minimum, ‘b’ is the Hill slope, ‘c’ is the pIC50 and ‘d’ is the maximum.

| Compound | IC50 [µM] |
| --- | --- |
| CNC(=O)c1cc(C(=O)N[C@H]2[C@@H]3COC[C@@H]32)cc2c1O[C@H](C)[C@H]2c1cccc(OCCO)c1 [Example 85, (2R,3S)—N^5-((1R,5S,6R)-3-Oxabicyclo[3.1.0]hexan-6-yl)-3-(3-(2-hydroxyethoxy)phenyl)-N^7,2-dimethyl-2,3-dihydrobenzofuran-5,7-dicarboxamide] | 1 to 100 |
| CNC(=O)c1cc(C(=O)NCCc2cccnc2)cc2c1O[C@@H](C)[C@@H]2c1cccc(OCCO)c1 [Example 183, (2S,3R)-3-(3-(2-hydroxyethoxy)phenyl)-N^7,2-dimethyl-N^5-(2-(pyridin-3-yl)ethyl)-2,3-dihydrobenzofuran-5,7-dicarboxamide] | 1 to 100 |
| CNC(=O)c1cc(C(=O)N[C@@H]2C[C@H]2CO)cc2c1O[C@@H](CF)[C@@H]2c1ccccc1 [Example 184, (2R,3R)-2-(fluoromethyl)-N^5-((1R,2R)-2-(hydroxymethyl)cyclopropyl)-N^7-methyl-3-phenyl-2,3-dihydrobenzofuran-5,7-dicarboxamide] | 1 to 100 |
| CNC(=O)c1cc(C(=O)Nc2nnn(C)n2)cc2c1O[C@H](CF)[C@H]2c1ccccc1 [Example 174, (2S,3S)-2-(Fluoromethyl)-N^7-methyl-N^5-(2-methyl-2H-tetrazol-5-yl)-3-phenyl-2,3-dihydrobenzofuran-5,7-dicarboxamide] | 1 to 100 |
| CNC(=O)c1cc(C(=O)NCCCC2CCNCC2(F)F)cc2c1O[C@@H](C)[C@@H]2c1ccccc1 (single isomer, unassigned) [Example 198, (2S,3R)-N5-(3-((S*)-3,3-difluoropiperidin-4-yl)propyl)-N7,2-dimethyl-3-phenyl-2,3-dihydrobenzofuran-5,7-dicarboxamide] | 1 to 100 |
| CNC(=O)c1cc(C(=O)Nc2nncn2C)cc2c1O[C@H](CF)[C@H]2c1ccccc1 [Example 172] | 1 to 100 |
| CNC(=O)c1cc(C(=O)Nc2cncnc2)cc2c1O[C@@H](CF)[C@@H]2c1ccccc1 [Example 200, (2R,3R)-2-(Fluoromethyl)-N^7-methyl-3-phenyl-N^5-(pyrimidin-5-yl)-2,3-dihydrobenzofuran-5,7-dicarboxamide] | 1 to 100 |
| CNC(=O)c1cc(C(=O)N[C@H]2[C@@H]3COC[C@@H]32)cc2c1O[C@@H](C)[C@@H]2c1cccc(OCCO)c1 [Example 181, (2S,3R)-N^5-((1R,5S,6r)-3-oxabicyclo[3.1.0]hexan-6-yl)-3-(3-(2-hydroxyethoxy)phenyl)-N^7,2-dimethyl-2,3-dihydrobenzofuran-5,7-dicarboxamide] | 1 to 100 |
| CNC(=O)c1cc(C(=O)NCC(C)O)cc2c1O[C@@H](C)[C@H]2c1ccccc1 (stereo partly drawn) [Example 7, (2S,3S)—N^5-(2-hydroxypropyl)-N^7,2-dimethyl-3-phenyl-2,3-dihydrobenzofuran-5,7-dicarboxamide] | 1 to 100 |
| CNC(=O)c1cc(C(=O)N[C@H]2[C@@H]3COC[C@@H]32)cc2c1O[C@@H](C)[C@@H]2c1cccc(OCCOC)c1 [Example 201, (2S,3R)-N^5-((1R,5S,6r)-3-oxabicyclo[3.1.0]hexan-6-yl)-3-(3-(2-methoxyethoxy)phenyl)-N^7,2-dimethyl-2,3-dihydrobenzofuran-5,7-dicarboxamide] | 1 to 100 |
| CNC(=O)c1cc(C(=O)NC2CC2)cc2c1O[C@@H](CO)[C@@H]2c1ccccc1 [Example 104, (2R,3R)-N^5-cyclopropyl-2-(hydroxymethyl)-N^7-methyl-3-phenyl-2,3-dihydrobenzofuran-5,7-dicarboxamide] | 1 to 100 |
| CNC(=O)c1cc(C(=O)N[C@H]2[C@@H]3CN(C(C)=O)C[C@@H]32)cc2c1O[C@@H](CF)[C@@H]2c1ccccc1 [Example 190, (2R,3R)-N^5-((1R,5S,6s)-3-acetyl-3-azabicyclo[3.1.0]hexan-6-yl)-2-(fluoromethyl)-N^7-methyl-3-phenyl-2,3-dihydrobenzofuran-5,7-dicarboxamide] | 1 to 100 |
| CNC(=O)c1cc(C(=O)NCCOC)cc2c1O[C@H](CO)[C@H]2c1cccc(OC)c1 (relative stereo) [Example 34, (2S*,3S*)-2-(Hydroxymethyl)-N^5-(2-methoxyethyl)-3-(3-methoxyphenyl)-N^7-methyl-2,3-dihydrobenzofuran-5,7-dicarboxamide] | 1 to 100 |
| CNC(=O)c1cc(C(=O)NC2CC2)cc2c1O[C@H](C)[C@@H]2c1ccccc1 [Example 103, (2R,3R)-N^5-cyclopropyl-N^7,2-dimethyl-3-phenyl-2,3-dihydrobenzofuran-5,7-dicarboxamide] | 1 to 100 |
| CNC(=O)c1cc(C(=O)NC2CC2)cc2c1O[C@@H](C)[C@@H]2c1ccccc1 [Example 102, (2S,3R)-N^5-cyclopropyl-N^7,2-dimethyl-3-phenyl-2,3-dihydrobenzofuran-5,7-dicarboxamide] | 1 to 100 |
| CCC(=O)N1C[C@@H]2[C@H](C1)[C@H]2NC(=O)c1cc(C(=O)NC)c2c(c1)[C@@H](c1ccccc1)[C@H](CF)O2 [Example 164, (2R,3R)-2-(Fluoromethyl)-N^7-methyl-3-phenyl-N^5-((1R,5S,6s)-3-propionyl-3-azabicyclo[3.1.0]hexan-6-yl)-2,3-dihydrobenzofuran-5,7-dicarboxamide] | 1 to 100 |

Now from value to compound:

| IC50 [µM] | Compound |
| --- | --- |
| 1 to 100 | CCNC(=O)c1cc(C(=O)NC)c2c(c1)[C@@H](c1ccccc1)[C@H](C)O2 [Example 101, (2S,3R)-N^5-ethyl-N^7,2-dimethyl-3-phenyl-2,3-dihydrobenzofuran-5,7-dicarboxamide] |
| 1 to 100 | CNC(=O)c1cc(C(=O)Nc2cnn(C)c2)cc2c1O[C@@H](CF)[C@@H]2c1ccccc1 [Example 187, (2R,3R)-2-(fluoromethyl)-N^7-methyl-N^5-(1-methyl-1H-pyrazol-4-yl)-3-phenyl-2,3-dihydrobenzofuran-5,7-dicarboxamide] |
| 1 to 100 | CNC(=O)c1cc(C(=O)Nc2cn[nH]c2)cc2c1O[C@@H](CF)[C@@H]2c1ccccc1 [Example 186, (2R,3R)-2-(fluoromethyl)-N^7-methyl-3-phenyl-N^5-(1H-pyrazol-4-yl)-2,3-dihydrobenzofuran-5,7-dicarboxamide] |
| 1 to 100 | CNC(=O)c1cc(C(=O)NC2C[C@H]2CCO)cc2c1O[C@H](CF)[C@H]2c1ccccc1 (stereo partly drawn) [Example 132, (2S,3S)-2-(Fluoromethyl)-N^5-((trans)-2-(2-hydroxyethyl)cyclopropyl)-N^7-methyl-3-phenyl-2,3-dihydrobenzofuran-5,7-dicarboxamide] |
| 1 to 100 | CNC(=O)c1cc(C(=O)NCCc2cnn(C)c2)cc2c1O[C@@H](C)[C@@H]2c1ccccc1 [Example 188, (2S,3R)-N^7,2-dimethyl-N^5-(2-(1-methyl-1H-pyrazol-4-yl)ethyl)-3-phenyl-2,3-dihydrobenzofuran-5,7-dicarboxamide] |
| 1 to 100 | CNC(=O)c1cc(C(=O)NCC(C)O)cc2c1O[C@@H](C)[C@@H]2c1ccccc1 (stereo partly drawn) [Example 107, (2S,3R)-N^5-(2-hydroxypropyl)-N^7,2-dimethyl-3-phenyl-2,3-dihydrobenzofuran-5,7-dicarboxamide] |
| 1 to 100 | CNC(=O)c1cc(C(=O)Nc2nncn2C)cc2c1O[C@@H](CF)[C@@H]2c1ccccc1 [Example 195, (2R,3R)-2-(fluoromethyl)-N^7-methyl-N^5-(4-methyl-4H-1,2,4-triazol-3-yl)-3-phenyl-2,3-dihydrobenzofuran-5,7-dicarboxamide] |
